Data reported in patent US20150099012A1, “METHODS FOR ACTIVATING RETROVIRUS IN LATENT INFECTED CELLS, AND COMPOUNDS FOR USE THEREIN” (Erasmus University Medical Center Rotterdam, priority 2012, published 2015).
“Also recorded” adds a separate entry of the source.

Assays:
[1] = system: histone acetylation on the HIV LTR; assay: Histone Acetyl H3 ChIP at the HIV LTR in J-Lat cells; format: cell-based; conditions: latent J-Lat cells; FIG. 4D
Description: (§1) (A) Schematic representation of strategy to explore nucleosome position changes and enrichment of LEF/b-catenin at the HIV LTR in its repressed state and after Wnt activation. Jurkat latent cells at 0, and 12 hours after stimulation with LiCl, BIO VPA, or LiCl and VPA together were crosslinked and sonicated to yield DNA fragments of approximately 150 bp. DNA accessibility was monitored by formaldehyde-assisted isolation of regulatory elements (FAIRE) while nucleosome occupancy was determined by histone H2B Chromatin immunoprecipitations (ChIPs). To determine enrichment of LEF, b-catenin, or Histone Acetyl H3, we performed ChIPs with antibodies specific for LEF1, b-catenin, Ac H3. (B) Wnt activation by treatment with LiCl/BIO is accompanied by an increase in DNA accessibility over the DHS1 of the HIV LTR. […] FAIRE results are presented as fold change respective to the unstimulated value (normalized to 1) for each primer pair. (D) b-catenin while absent from the LTR in the repressed state, directly binds to the LTR upon LiCl/BIO activation. LEF1 binding, while present on the LTR in the repressed state is enriched upon LiCl/BIO treatment. […] Immunoprecipitated DNA from ChIPs and phenol:chloroform extracted DNA from FAIRE were analyzed by qPCR using primer pairs specific for the HIV LTR nuc-0, DHS1, nuc-1, and nuc-2 regions, and control region amplifying upstream of the Axin2 gene. […]

latent HIV LTR = assay: Activation of latent HIV LTR in J-Lat/S-Lat latently infected cell lines (GFP reporter, FACS); format: cell-based, HIV-1; conditions: single agents; J-Lat/S-Lat or 1G5 cells; FIG. 5
Description: A) S-Lat 46, J-Lat P32, J-Lat A2, J-Lat 11.1, S-Lat 24, S-Lat 9 and […], and GFP expression was monitored by FACS analysis to determine activation of the latent LTR. B) J-Lat P32 and (C) S-Lat 30 Jurkats and SupT1 cell lines harbouring latently infected HIV were either untreated or treated with 2, 5 or 10 mM LiCl as indicated. Expression of HIV-LTR driven P24 and GFP, and endogenous Wnt target genes AXIN2, MMP9, TCF1, as well as control GAPDH and NFkB target genes TLR2 and ICAM1 was monitored by qRT-PCR 72 hours after treatment. Expression data are presented as fold induction normalized to Cyclophillin A control.
(§2) Expression data are presented as fold induction normalized to Cyclophillin A control.

HIV LTR DHS1 and nuc-1 [2] = assay: FAIRE DNA accessibility at the HIV LTR; format: cell-based; conditions: latent J-Lat cells, 12 hours after stimulation; FIG. 4B
Description: as §1

LEF1 binding at HIV LTR = assay: LEF1 ChIP at the HIV LTR in J-Lat cells; format: cell-based; conditions: latent J-Lat cells; FIG. 4D
Description: as §1

[3] = system: b-catenin recruitment to HIV LTR; assay: b-catenin ChIP at the HIV LTR in J-Lat cells; format: cell-based; conditions: latent J-Lat cells; FIG. 4D
Description: as §1

HIV LTR DHS1 and nuc-1 [4] = assay: Histone H2B ChIP nucleosome occupancy at the HIV LTR; format: cell-based; conditions: latent J-Lat cells, 12 hours after stimulation; FIG. 4C
Description: as §1

[5] = system: NFkB target genes TLR2 and ICAM1; assay: qRT-PCR of NFkB target genes in latent HIV-infected Jurkat/SupT1 cell lines; format: cell-based; conditions: exogenous expression in S-Lat30; FIG. 6B
Description: as §2
(§3) Latent HIV-infected S-Lat 30 (A) and J-LatP32 (B) were treated with Wnt3A or control conditioned media. Relative mRNA expression levels of endogenous Wnt target genes AXIN2, ZCCHC12, TCF1, MMP9, the HIV P24 Gag and the LTR-reporter GFP, control (GAPDH) and NFkB target genes were quantitated by qRT-PCR. Expression data are presented as fold induction normalized to Cyclophillin A control.
(§4) A) S-Lat 46, J-Lat P32, J-Lat A2, J-Lat 11.1, S-Lat 24, S-Lat 9 and S-Lat 30 latently infected Jurkat and SupT1 cell lines were treated with Lithium Chloride (10 mM) for 2 hours, and GFP expression was monitored by FACS analysis to determine activation of the latent LTR. B) J-Lat P32 and (C) S-Lat 30 Jurkats and SupT1 cell lines harbouring latently infected HIV were either untreated or treated with 2, 5 or 10 mM LiCl as indicated. Expression of HIV-LTR driven P24 and GFP, and endogenous Wnt target genes AXIN2, MMP9, TCF1, as well as control GAPDH and NFkB target genes TLR2 and ICAM1 was monitored by qRT-PCR 72 hours after treatment. Expression data are presented as fold induction normalized to Cyclophillin A control.
as §3, with “In addition, latent” for “Latent”

[6] = system: Wnt target genes AXIN2, TCF7(TCF1), MMP9, ZCCHC12, MMP2; assay: qRT-PCR of endogenous Wnt target genes in latent HIV-infected Jurkat/SupT1 cell lines; format: cell-based; conditions: exogenous expression in S-Lat30; FIG. 6B
Description: as §2, §3
as §4, with “B) J-Lat P32 and (C) S-Lat 30 Jurkats and SupT1 cell lines harbouring latently infected HIV were either untreated or treated with 2, 5 or 10 mM LiCl as indicated.” left out, “Expression data are presented as fold induction normalized to Cyclophillin A control.” left out
as §3, with “In addition, latent” for “Latent”, “Expression data are presented as fold induction normalized to Cyclophillin A control.” left out

[7] = system: latent HIV (P24 Gag, LTR-reporter GFP); assay: qRT-PCR of HIV P24 Gag and LTR-reporter GFP mRNA in latent HIV-infected cell lines; format: cell-based; conditions: exogenous expression in S-Lat30; FIG. 6B
Excerpt: (§5) A) Exogenous expression of S33Y β-catenin in S-Lat30 latent HIV infected cell line results in activation of TCF/LEF-driven TOPFLASH luciferase activity. […] S33Y β-catenin expression also results in a concomitant activation of latent HIV in S-Lat30 HIV infected cell line as quantitated by increased mRNA expression of HIV P24 Gag and the LTR-reporter GFP. Expression data are presented as fold induction normalized to Cyclophillin A control.
as §3
as §3, with “In addition, latent” for “Latent”, “control. […]” for “control.”

TCF/LEF-driven TOPFLASH = TCF/LEF-driven TOPFLASH luciferase reporter in S-Lat30; format: cell-based; conditions: exogenous expression (nucleofection) in S-Lat30; FIG. 6A
Excerpt: as §5
For example, activation of the Wnt signaling pathway may be measured/quantitated by an increase In TCF-driven transcription in the cell after introduction of TOPFLASH (plasmid with tandem TCF/LEF consensus sites driving expression of the luciferase gene) into the cell via transfection/nucleofection. Increase in TOPFLASH (TCF-driven) and not FOPFLASH (TCF-mutant reporter) indicates activation of the Wnt signaling pathway.
S33Y β-catenin constitutively active mutant: Transfection (by nucleofection) of latent HIV infected cell lines with an expression vector for a constitutively active form of β-catenin, the molecular effector of the Wnt signaling pathway results in activation of latent HIV.

| Molecule | histone acetylation on the LTR (Ac H3 ChIP) [1] | de-repression / activation of latent HIV LTR (latent HIV LTR) | DNA accessibility at the HIV LTR (FAIRE) (HIV LTR DHS1 and nuc-1 [2]) | enrichment of LEF1 at the HIV LTR (ChIP) (LEF1 binding at HIV LTR) | recruitment of b-catenin to the HIV LTR (ChIP) [3] | nucleosome occupancy / histone density at the HIV LTR (H2B ChIP) (HIV LTR DHS1 and nuc-1 [4]) | mRNA expression of control gene GAPDH and NFkb target genes TLR2 and ICAM1 [5] | mRNA expression of endogenous Wnt target genes AXIN2, MMP2, TCF1, ZCCHC12, MMP9 [6] | mRNA expression of HIV P24 Gag and LTR-reporter GFP [7] | TCF-driven TOPFLASH luciferase activity (TCF/LEF-driven TOPFLASH) |
| --- | --- | --- | --- | --- | --- | --- | --- | --- | --- | --- |
| O=C1Nc2cc(Br)ccc2/C1=C1/Nc2ccccc2/C1=N\O [BIO, (2′Z,3′E)-6-Bromoindirubin-3′-oxime] | histone acetylation is increased on the LTR | de-repression of latent HIV LTR; also recorded: activates the LTR in latently HIV infected cells | increase accessibility | enrichment of LEF1 at the HIV LTR | recruitment of b-catenin to LTR DHS1 and nuc-1 | decreased nucleosome occupancy at DHS1 | – | – | – | – |
| S33Y β-catenin: constitutively active β-catenin mutant, expressed from a nucleofected expression vector (protein, UniProt P35222 2-781, looked up, variant S33Y) Catenin beta-1: ATQADLMELDMAMEPDRKAAVSHWQQQSYLDYGIHSGATTTAPSLSGKGNPEEEDVDTSQVLYEWEQGFSQSFTQEQVADIDGQYAMTRAQRVRAAMFPETLDEGMQIPSTQFDAAHPTNVQRLAEPSQMLKHAVVNLINYQDDAELATRAIPELTKLLNDEDQVVVNKAAVMVHQLSKKEASRHAIMRSPQMVSAIVRTMQNTNDVETARCTAGTLHNLSHHREGLLAIFKSGGIPALVKMLGSPVDSVLFYAITTLHNLLLHQEGAKMAVRLAGGLQKMVALLNKTNVKFLAITTDCLQILAYGNQESKLIILASGGPQALVNIMRTYTYEKLLWTTSRVLKVLSVCSSNKPAIVEAGGMQALGLHLTDPSQRLVQNCLWTLRNLSDAATKQEGMEGLLGTLVQLLGSDDINVVTCAAGILSNLTCNNYKNKMMVCQVGGIEALVRTVLRAGDREDITEPAICALRHLTSRHQEAEMAQNAVRLHYGLPVVVKLLHPPSHWPLIKATVGLIRNLALCPANHAPLREQGAIPRLVQLLVRAHQDTQRRTSMGGTQQQFVEGVRMEEIVEGCTGALHILARDVHNRIVIRGLNTIPLFVQLLYSPIENIQRVAAGVLCELAQDKEAAEAIEAEGATAPLTELLHSRNEGVATYAAAVLFRMSEDKPQDYKKRLSVELTSSLFRTEPMAWNETADLGLDIGAQGEPLGYRQDDPSYRSFHSGGYGQDALGMDPMMEHEMGGHHPGADYPVDGLPDLGHAQDLMDGLPPGDSNQLAWFDTDL | – | – | – | – | – | – | not control gene GAPDH, or the NFkb target genes TLR2 and ICAM1 | increased mRNA expression of the endogenous Wnt target genes | increased mRNA expression of HIV P24 Gag as well as the LTR-reporter GFP | activation of TCF-driven TOPFLASH luciferase activity |
